Experimental data published in PMC11537199 (RSC Advances, 2024).
Several values for one entry are separate records, joined by “and”; a condition that tells them apart may be missing. Identical values can stand only once. Like-named read-outs stand apart in the source and are kept apart here.

How the values were obtained:
PEDV M^pro = assay type: biochemical, porcine epidemic diarrhea virus (PEDV); settings: for K M / Km / vmax: pH 7.6
EqCoV M^pro = assay type: biochemical, equine coronavirus (EqCoV); settings: pH 7.6
Polio M^pro = Polio M^pro (Poliovirus type 1, UniProt P03300); settings: pH 7.6
Sequence of Polio M^pro (P03300 1566-1748 limits assumed): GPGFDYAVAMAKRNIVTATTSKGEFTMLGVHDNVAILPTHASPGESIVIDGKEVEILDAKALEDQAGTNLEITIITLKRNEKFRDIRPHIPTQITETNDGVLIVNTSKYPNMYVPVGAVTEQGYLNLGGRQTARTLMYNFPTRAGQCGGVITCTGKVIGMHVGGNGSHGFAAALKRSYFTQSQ

EV71 M^pro = EV71 M^pro (Human enterovirus 71, UniProt Q66478); assay type: biochemical, enterovirus A71 (EV71); settings: 500 nM enzyme, substrate 6-850 μM; for catalytic efficiency (kcat/KM): Table 8
Sequence of EV71 M^pro (Q66478 1549-1731 limits assumed): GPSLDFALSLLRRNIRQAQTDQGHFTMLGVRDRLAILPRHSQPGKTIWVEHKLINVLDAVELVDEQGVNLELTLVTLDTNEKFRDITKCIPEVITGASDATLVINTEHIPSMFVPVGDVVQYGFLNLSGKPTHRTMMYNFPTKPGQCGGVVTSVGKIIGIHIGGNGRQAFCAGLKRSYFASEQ

NV M^pro = NV M^pro (Norovirus, UniProt Q83883); assay type: biochemical; settings: 500 nM enzyme, substrate 6-850 μM; for catalytic efficiency (kcat/KM): Table 8
Sequence of NV M^pro (Q83883 1101-1281 limits assumed): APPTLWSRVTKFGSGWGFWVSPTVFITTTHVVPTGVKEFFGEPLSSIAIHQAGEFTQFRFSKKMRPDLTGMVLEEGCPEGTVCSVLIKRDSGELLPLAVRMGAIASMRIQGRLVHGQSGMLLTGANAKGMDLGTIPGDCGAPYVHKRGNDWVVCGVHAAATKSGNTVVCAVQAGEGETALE

[1] = test system: picornavirus and norovirus M^pros (PV, HRV, EV71, NV); assay type: biochemical, poliovirus, human rhinovirus, enterovirus A71; settings: cross-test against PV, EV71 and NV M^pro, 500 nM enzyme, Bis-Tris pH 7.6, 37 °C
SARS-CoV-2 M^pro [2] = target: T1, SARS-CoV-2 M^pro (Severe acute respiratory syndrome coronavirus 2, UniProt P0DTD1); settings: pH 7.6
FIPV M^pro = FIPV M^pro (Feline coronavirus, UniProt Q98VG9); assay type: biochemical, feline infectious peritonitis virus (FIPV); settings: pH 7.6
Sequence of FIPV M^pro (Q98VG9 2904-3205 limits assumed): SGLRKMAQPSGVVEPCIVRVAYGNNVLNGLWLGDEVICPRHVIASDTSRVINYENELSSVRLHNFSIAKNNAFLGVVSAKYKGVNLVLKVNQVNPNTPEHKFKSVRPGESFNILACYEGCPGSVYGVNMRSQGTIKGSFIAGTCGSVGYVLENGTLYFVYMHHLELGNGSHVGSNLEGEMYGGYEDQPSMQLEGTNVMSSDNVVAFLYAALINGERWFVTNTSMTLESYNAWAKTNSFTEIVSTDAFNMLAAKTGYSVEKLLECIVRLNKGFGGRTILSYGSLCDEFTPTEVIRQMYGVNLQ

[3] = test system: coronaviral M^pros (SARS-CoV-2, FIPV, PEDV, EqCoV); assay type: biochemical
HRV M^pro = HRV M^pro (Human rhinovirus 14, UniProt P03303); assay type: biochemical; settings: 500 nM enzyme, substrate 6-850 μM; for vmax: Fig. S29 Michaelis-Menten fit; for vmax / catalytic efficiency (kcat/KM): Bis-Tris pH 7.6, 37 °C; for Km: Table 7, 20 mM Bis-Tris pH 7.6, 1 mM DTT, 0.02% Tween-20, 37 °C, read 60 min; for catalytic efficiency (kcat/KM): Table 8
Sequence of HRV M^pro (P03303 1538-1719 limits assumed): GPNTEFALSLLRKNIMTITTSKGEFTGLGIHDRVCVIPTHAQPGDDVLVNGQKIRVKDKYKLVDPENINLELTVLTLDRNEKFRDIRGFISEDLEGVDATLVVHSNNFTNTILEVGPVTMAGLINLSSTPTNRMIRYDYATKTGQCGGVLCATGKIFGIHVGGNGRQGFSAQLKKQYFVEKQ

[4] = test system: coronavirus M^pros (SARS-CoV-2, FIPV, PEDV, EqCoV); assay type: biochemical
SARS-CoV-2 M^pro [5] = target: T1, SARS-CoV-2 M^pro
[6] = Fig. S31 Michaelis-Menten fit, Bis-Tris pH 7.6, 37 °C
[7] = Table 7, 20 mM Bis-Tris pH 7.6, 1 mM DTT, 0.02% Tween-20, 37 °C, read 60 min
[8] = Fig. S32 Michaelis-Menten fit, Bis-Tris pH 7.6, 37 °C

In the case of 2-Abz-YNSTLQ↓SGY^(NO2)R [PEDV 1], the k cat (PEDV M^pro) is reported as 3.3 ± 0.3 s⁻¹, the “K M” value (PEDV M^pro) is reported as 192 ± 26 µM and the Km (PEDV M^pro) is reported as 192 ± 26 µM. For the same molecule, the vmax (PEDV M^pro) was 0.330 ± 0.02 µM/s and the vmax (EqCoV M^pro) was 0.4075 µM/s.

With 2-Abz-EFQLQ↓GKMYDY^(NO2)R [NVFRET] the vmax (Polio M^pro) was 4.136 ± 1.36 µM/s, the Km (EV71 M^pro; [6]) was 1100 µM and the vmax (EV71 M^pro; [6]) was 1.914 ± 0.29 µM/s. The Km (EV71 M^pro; [7]) was 1100 ± 201 µM, the “catalytic efficiency (kcat/KM)” value (EV71 M^pro; Bis-Tris pH 7.6, 37 °C) was 3400 ± 455 M⁻¹ s⁻¹ and the vmax (NV M^pro; [8]) was 0.4163 ± 0.08 µM/s. The Km (NV M^pro; [7]) was 613 ± 188 µM and the “catalytic efficiency (kcat/KM)” value (NV M^pro; Bis-Tris pH 7.6, 37 °C) was 1300 ± 167 M⁻¹ s⁻¹.

For “2-Abz-DFHLQ↓GPY^(NO2)R [NPFRET, shorter, truncated consensus substrate proposed in the literature, reference compound]”, the “recognition of substrate by picornaviral and noroviral main proteases” value [1] was “lack of binding”.

With 2-Abz-VVTLQ↓SGY^(NO2)R [Blanchard-VV] the Km (SARS-CoV-2 M^pro [2]) was 64 ± 10 µM, the vmax (SARS-CoV-2 M^pro [2]) was 0.2927 ± 0.02 µM/s and the Km (FIPV M^pro) was 85 ± 15 µM. The vmax (FIPV M^pro) was 0.3231 ± 0.04 µM/s, the Km (PEDV M^pro) was 85 ± 10 µM and the vmax (PEDV M^pro) was 0.360 ± 0.04 µM/s. It also gave a Km (EqCoV M^pro) of 371 ± 70 µM.

With Tween-20 the “effect on catalytic activity” value [3] was “do not significantly reduce catalytic activity”.

For “2-Abz-NSTLQ↓SGY^(NO2)R [PEDV 2, truncated version of the PEDV FRET substrate]”, the k cat (PEDV M^pro) was 2.6 ± 0.2 s⁻¹, the “K M” value (PEDV M^pro) was 63 ± 11 µM and the Km (PEDV M^pro) was 63 ± 11 µM. The vmax (PEDV M^pro) was 0.266 ± 0.02 µM/s and the vmax (EqCoV M^pro) was 0.4516 µM/s.

In the case of 2-Abz-EALFQ↓GPPKY^(NO2)R [EV71FRET], the “recognition of substrate by picornaviral and noroviral main proteases” value [1] is reported as “somewhat more promiscuous”, the vmax (HRV M^pro) is reported as 0.7709 ± 0.08 µM/s and the Km (HRV M^pro) is reported as 480 ± 80 µM. For the same molecule, the “catalytic efficiency (kcat/KM)” value (HRV M^pro) was 3200 ± 405 M⁻¹ s⁻¹, the Km (Polio M^pro) was 1140 µM and 1110 µM and the “catalytic efficiency (kcat/KM)” value (Polio M^pro) was 2700 ± 315 M⁻¹ s⁻¹. The vmax (Polio M^pro) was 1.366 ± 0.30 µM/s, the Km (EV71 M^pro; [6]) was 1640 µM and the vmax (EV71 M^pro; [6]) was 1.029 ± 0.13 µM/s. The Km (EV71 M^pro; [7]) was 1640 ± 261 µM, the “catalytic efficiency (kcat/KM)” value (EV71 M^pro; Bis-Tris pH 7.6, 37 °C) was 1300 ± 138 M⁻¹ s⁻¹ and the Km (NV M^pro; [8]) was 622 µM. For the same molecule, the vmax (NV M^pro; [8]) was 1.410 ± 0.16 µM/s, the Km (NV M^pro; [7]) was 620 ± 153 µM and the “catalytic efficiency (kcat/KM)” value (NV M^pro; Bis-Tris pH 7.6, 37 °C) was 4500 ± 515 M⁻¹ s⁻¹.

In the case of `C[S+](C)[O-]` [DMSO, dimethyl sulfoxide], the “decrease of enzyme activity” value [3] is reported as 42–60%.

For 2-Abz-ETLFQ↓GPVY^(NO2)R [HRFRET], the “recognition of substrate by picornaviral and noroviral main proteases” value [1] was “only specific to rhinovirus M^pro”, the vmax (HRV M^pro) was 0.5348 ± 0.08 µM/s and the Km (HRV M^pro) was 340 ± 49 µM. For the same molecule, the “catalytic efficiency (kcat/KM)” value (HRV M^pro) was 3000 ± 285 M⁻¹ s⁻¹.

2-Abz-STLAAGY^(NO2)R [(−) FRET] was tested, and the “recognition of substrate by coronavirus M^pros” value [4] was “None of the investigated M^pros recognize” and the “cleavage by SARS-CoV-2 M^pro (LCMS analysis of cleavage products)” value (SARS-CoV-2 M^pro [5]) was “no cleavage”.
